# Columns and labels:
# Format in all cases: in vivo
# redroot pigweed = assay: Test Example 3: weedkilling efficacy through soil treatment; L: redroot pigweed; details: soil treatment, treatment dosage 320 g/ha
# Procedure, shortened: (§1)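 Crop and weed responses were judged three weeks after a uniform surface spray of the water-diluted emulsion at the given g/ha rate. Seeds sat beneath about 1.5 cm of sterilized diluvial soil, and boxes stood in a greenhouse at 25 to 30° C.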
# crabgrass = assay: Test Example 3: weedkilling efficacy through soil treatment; D: crabgrass; details: soil treatment, treatment dosage 320 g/ha
# Procedure, shortened: as §1
# catchweed = assay: Test Example 3: weedkilling efficacy through soil treatment; O: catchweed; details: soil treatment, treatment dosage 320 g/ha
# Procedure, shortened: as §1
# barnyard grass [1] = assay: Test Example 2: weedkilling efficacy, growth period weed treatment in the submerged state; A: barnyard grass; details: treatment dosage 320 g/ha
# Procedure, shortened: (§2)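 Seedlings at 1-2 leaves in 4 cm-deep submerged alluvial soil received emulsion formulations on the water surface, dosed per hectare; effects were judged 3 weeks on.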
# common wind-grass = assay: Test Example 3: weedkilling efficacy through soil treatment; J: common wind-grass; details: soil treatment, treatment dosage 320 g/ha
# Procedure, shortened: as §1
# oval-leafed pondweed [2] = assay: Test Example 1: weedkilling efficacy, preemergent weed treatment in the submerged state; C: oval-leafed pondweed; details: treatment dosage 320 g/ha
# Procedure, shortened: (§3)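 Submerged pre-emergence treatment, water-surface application of compound emulsion at g/ha dosages; 4 cm flooded alluvial soil, weeds sown and 2.5-leaf rice transplanted same day. Rated after 3 weeks, greenhouse.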
# green foxtail = assay: Test Example 3: weedkilling efficacy through soil treatment; E: green foxtail; details: soil treatment, treatment dosage 320 g/ha
# Procedure, shortened: as §1
# black-grass = assay: Test Example 3: weedkilling efficacy through soil treatment; H: black-grass; details: soil treatment, treatment dosage 320 g/ha
# Procedure, shortened: as §1
# bulrush [3] = assay: Test Example 1: weedkilling efficacy, preemergent weed treatment in the submerged state; B: bulrush; details: treatment dosage 320 g/ha
# Procedure, shortened: as §3
# fig-leafed goosefoot = assay: Test Example 3: weedkilling efficacy through soil treatment; M: fig-leafed goosefoot; details: soil treatment, treatment dosage 320 g/ha
# Procedure, shortened: as §1
# wheat = assay: Test Example 3: soil treatment, effect on crop; e: wheat; details: soil treatment, treatment dosage 320 g/ha
# Procedure, shortened: as §1
# barnyard grass [4] = assay: Test Example 3: weedkilling efficacy through soil treatment; F: barnyard grass; details: soil treatment, treatment dosage 320 g/ha
# Procedure, shortened: as §1
# chickweed = assay: Test Example 3: weedkilling efficacy through soil treatment; N: chickweed; details: soil treatment, treatment dosage 320 g/ha
# Procedure, shortened: as §1
# Italian ryegrass = assay: Test Example 3: weedkilling efficacy through soil treatment; I: Italian ryegrass; details: soil treatment, treatment dosage 320 g/ha
# Procedure, shortened: as §1
# bulrush [5] = assay: Test Example 2: weedkilling efficacy, growth period weed treatment in the submerged state; B: bulrush; details: treatment dosage 320 g/ha
# Procedure, shortened: as §2
# Indian mallow = assay: Test Example 3: weedkilling efficacy through soil treatment; K: Indian mallow; details: soil treatment, treatment dosage 320 g/ha
# Procedure, shortened: as §1
# rapeseed = assay: Test Example 3: soil treatment, effect on crop; g: rapeseed; details: soil treatment, treatment dosage 320 g/ha
# Procedure, shortened: as §1
# oval-leafed pondweed [6] = assay: Test Example 2: weedkilling efficacy, growth period weed treatment in the submerged state; C: oval-leafed pondweed; details: treatment dosage 320 g/ha
# Procedure, shortened: as §2
# beet = assay: Test Example 3: soil treatment, effect on crop; f: beet; details: soil treatment, treatment dosage 320 g/ha
# Procedure, shortened: as §1
# wild oat = assay: Test Example 3: weedkilling efficacy through soil treatment; G: wild oat; details: soil treatment, treatment dosage 320 g/ha
# Procedure, shortened: as §1
# directly sown rice = assay: Test Example 3: soil treatment, effect on crop; b: directly sown rice; details: soil treatment, treatment dosage 320 g/ha
# Procedure, shortened: as §1
# birds-eye speedwell = assay: Test Example 3: weedkilling efficacy through soil treatment; p: birds-eye speedwell; details: soil treatment, treatment dosage 320 g/ha
# Procedure, shortened: as §1
# corn = assay: Test Example 3: soil treatment, effect on crop; c: corn; details: soil treatment, treatment dosage 320 g/ha
# Procedure, shortened: as §1
# transplanted rice = assay: Test Example 1: preemergent weed treatment in the submerged state, effect on crop; a: transplanted rice; details: treatment dosage 320 g/ha
# Procedure, shortened: as §3
# barnyard grass [7] = assay: Test Example 1: weedkilling efficacy, preemergent weed treatment in the submerged state; A: barnyard grass; details: treatment dosage 320 g/ha
# Procedure, shortened: as §3
# soybean = assay: Test Example 3: soil treatment, effect on crop; d: soybean; details: soil treatment, treatment dosage 320 g/ha
# Procedure, shortened: as §1
SMILES,"L: redroot pigweed, weedkilling efficacy grade (redroot pigweed)","D: crabgrass, weedkilling efficacy grade (crabgrass)","O: catchweed, weedkilling efficacy grade (catchweed)",A (barnyard grass) weedkilling efficacy grade (barnyard grass [1]),"J: common wind-grass, weedkilling efficacy grade (common wind-grass)","C: oval-leafed pondweed, weed kill grade (oval-leafed pondweed [2])","E: green foxtail, weedkilling efficacy grade (green foxtail)","H: black-grass, weedkilling efficacy grade (black-grass)","B: bulrush, weed kill grade (bulrush [3])","M: fig-leafed goosefoot, weedkilling efficacy grade (fig-leafed goosefoot)","e: wheat, effect on crop grade (wheat)","F: barnyard grass, weedkilling efficacy grade (barnyard grass [4])","N: chickweed, weedkilling efficacy grade (chickweed)","I: Italian ryegrass, weedkilling efficacy grade (Italian ryegrass)",B (bulrush) weedkilling efficacy grade (bulrush [5]),"K: Indian mallow, weedkilling efficacy grade (Indian mallow)","g: rapeseed, effect on crop grade (rapeseed)",C (oval-leafed pondweed) weedkilling efficacy grade (oval-leafed pondweed [6]),"f: beet, effect on crop grade (beet)","G: wild oat, weedkilling efficacy grade (wild oat)",further results
Cc1nnc(NC(=O)C(C)(C)N2COCN(c3ccccc3)C2=O)s1 [A-1-13],0 (weed kill ratio 5% or less (practically no effect)),"3 (weed kill ratio 40% or more, less than 70%)",0 (weed kill ratio 5% or less (practically no effect)),"3 (weed kill ratio 40% or more, less than 70%)","5 (weed kill ratio 90% or more, (practically complete withering))","5 (weed kill ratio 90% or more, (practically complete withering))","3 (weed kill ratio 40% or more, less than 70%)","5 (weed kill ratio 90% or more, (practically complete withering))","5 (weed kill ratio 90% or more, (practically complete withering))","3 (weed kill ratio 40% or more, less than 70%)","1 (weed kill ratio 5% or more, less than 20%)","3 (weed kill ratio 40% or more, less than 70%)","3 (weed kill ratio 40% or more, less than 70%)","5 (weed kill ratio 90% or more, (practically complete withering))","5 (weed kill ratio 90% or more, (practically complete withering))",0 (weed kill ratio 5% or less (practically no effect)),"4 (weed kill ratio 70% or more, less than 90%)","3 (weed kill ratio 40% or more, less than 70%)","1 (weed kill ratio 5% or more, less than 20%)","3 (weed kill ratio 40% or more, less than 70%)","b: directly sown rice, effect on crop grade (directly sown rice): 3 (weed kill ratio 40% or more, less than 70%); P: birds-eye speedwell, weedkilling efficacy grade (birds-eye speedwell): 4 (weed kill ratio 70% or more, less than 90%); c: corn, effect on crop grade (corn): 0 (weed kill ratio 5% or less (practically no effect)); a: transplanted rice, effect on crop grade (transplanted rice): 3 (weed kill ratio 40% or more, less than 70%); A: barnyard grass, weed kill grade (barnyard grass [7]): 5 (weed kill ratio 90% or more, (practically complete withering)); d: soybean, effect on crop grade (soybean): 0 (weed kill ratio 5% or less (practically no effect))"
CSc1nnc(NC(=O)C(C)(C)N2COCN(c3ccccc3)C2=O)s1 [A-1-15],0 (weed kill ratio 5% or less (practically no effect)),0 (weed kill ratio 5% or less (practically no effect)),0 (weed kill ratio 5% or less (practically no effect)),"3 (weed kill ratio 40% or more, less than 70%)","5 (weed kill ratio 90% or more, (practically complete withering))","5 (weed kill ratio 90% or more, (practically complete withering))",0 (weed kill ratio 5% or less (practically no effect)),"1 (weed kill ratio 5% or more, less than 20%)","5 (weed kill ratio 90% or more, (practically complete withering))",0 (weed kill ratio 5% or less (practically no effect)),0 (weed kill ratio 5% or less (practically no effect)),0 (weed kill ratio 5% or less (practically no effect)),0 (weed kill ratio 5% or less (practically no effect)),"4 (weed kill ratio 70% or more, less than 90%)","5 (weed kill ratio 90% or more, (practically complete withering))",0 (weed kill ratio 5% or less (practically no effect)),"1 (weed kill ratio 5% or more, less than 20%)","5 (weed kill ratio 90% or more, (practically complete withering))",0 (weed kill ratio 5% or less (practically no effect)),0 (weed kill ratio 5% or less (practically no effect)),"b: directly sown rice, effect on crop grade (directly sown rice): 0 (weed kill ratio 5% or less (practically no effect)); P: birds-eye speedwell, weedkilling efficacy grade (birds-eye speedwell): 3 (weed kill ratio 40% or more, less than 70%); c: corn, effect on crop grade (corn): 0 (weed kill ratio 5% or less (practically no effect)); a: transplanted rice, effect on crop grade (transplanted rice): 0 (weed kill ratio 5% or less (practically no effect)); A: barnyard grass, weed kill grade (barnyard grass [7]): 4 (weed kill ratio 70% or more, less than 90%); d: soybean, effect on crop grade (soybean): 0 (weed kill ratio 5% or less (practically no effect))"
Cc1nsc(NC(=O)C(C)(C)N2COCN(c3ccccc3)C2=O)n1 [A-1-18],"4 (weed kill ratio 70% or more, less than 90%)","5 (weed kill ratio 90% or more, (practically complete withering))",0 (weed kill ratio 5% or less (practically no effect)),"3 (weed kill ratio 40% or more, less than 70%)","5 (weed kill ratio 90% or more, (practically complete withering))","5 (weed kill ratio 90% or more, (practically complete withering))","5 (weed kill ratio 90% or more, (practically complete withering))","5 (weed kill ratio 90% or more, (practically complete withering))","5 (weed kill ratio 90% or more, (practically complete withering))","4 (weed kill ratio 70% or more, less than 90%)",0 (weed kill ratio 5% or less (practically no effect)),"4 (weed kill ratio 70% or more, less than 90%)","2 (weed kill ratio 20% or more, less than 40%)","5 (weed kill ratio 90% or more, (practically complete withering))","5 (weed kill ratio 90% or more, (practically complete withering))",0 (weed kill ratio 5% or less (practically no effect)),"4 (weed kill ratio 70% or more, less than 90%)","5 (weed kill ratio 90% or more, (practically complete withering))","1 (weed kill ratio 5% or more, less than 20%)","4 (weed kill ratio 70% or more, less than 90%)","b: directly sown rice, effect on crop grade (directly sown rice): 5 (weed kill ratio 90% or more, (practically complete withering)); P: birds-eye speedwell, weedkilling efficacy grade (birds-eye speedwell): 4 (weed kill ratio 70% or more, less than 90%); c: corn, effect on crop grade (corn): 0 (weed kill ratio 5% or less (practically no effect)); a: transplanted rice, effect on crop grade (transplanted rice): 2 (weed kill ratio 20% or more, less than 40%); A: barnyard grass, weed kill grade (barnyard grass [7]): 5 (weed kill ratio 90% or more, (practically complete withering)); d: soybean, effect on crop grade (soybean): 4 (weed kill ratio 70% or more, less than 90%)"

# Reference: patent publication US9738634B2, “Heterocyclic amide compound and herbicide” (SYNGENTA PARTICIPATIONS AG, priority 2013, dated 2017)
